The target of assay [1] is T1, human STAT6/pIL-4Rα (Homo sapiens, UniProt P42226).
T1 construct: histidine tag
T1 sequence (P42226 123-658): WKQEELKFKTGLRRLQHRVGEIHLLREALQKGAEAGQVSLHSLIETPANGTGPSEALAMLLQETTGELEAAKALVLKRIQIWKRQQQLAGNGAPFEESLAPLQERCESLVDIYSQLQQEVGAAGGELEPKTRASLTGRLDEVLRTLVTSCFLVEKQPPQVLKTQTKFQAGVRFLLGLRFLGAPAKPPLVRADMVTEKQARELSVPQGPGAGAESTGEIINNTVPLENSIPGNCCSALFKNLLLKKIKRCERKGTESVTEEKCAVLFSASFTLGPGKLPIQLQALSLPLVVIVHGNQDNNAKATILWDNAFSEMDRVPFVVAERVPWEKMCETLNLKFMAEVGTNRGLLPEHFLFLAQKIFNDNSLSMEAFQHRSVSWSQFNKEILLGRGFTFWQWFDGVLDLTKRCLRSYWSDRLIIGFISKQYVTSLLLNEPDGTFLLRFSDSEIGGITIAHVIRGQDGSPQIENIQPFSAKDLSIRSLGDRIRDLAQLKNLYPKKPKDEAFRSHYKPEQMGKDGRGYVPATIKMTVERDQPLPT
The assay is described as follows: Binding inhibitory activity between human STAT6/pIL-4Rα by fluorescence polarization method. To be noted: rhSTAT6 (123-658) / FAM-pIL-4Rα peptide. In short, it runs like this:
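His-tagged human STAT6 (residues 123–658, E. coli-expressed) was preincubated with compound for 30 min at RT in the dark, in buffer e.g. 50 mM NaCl, 10 mM HEPES pH 7.0, 1 mM DTT, 1 mM EDTA, 0.01% NP-40. FAM-pIL-4Rα peptide was then added for 30 min. Fluorescence polarisation was read at 485/535 nm, with IC50 interpolated linearly between two points flanking 50%.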
(Polarisation of emitted light reports the rotation of a fluorescent probe.)

In assay [2] the test system is human STAT6. Briefly: Human STAT6 dependent reporter activity (IL-4 stimulated STAT6 reporter assay using STAT6-HEK293 cells). It is filed as cell-based. The conditions noted are these: IL-4 stimulation, luciferase activity; for inhibition at 0.1 µM / inhibition at 1 µM: Homo sapiens, read-out: Inhibition rate (%). (In general: A reporter such as luciferase makes a cellular process visible.)

Each structure is given as a SMILES string.

The IC50 is the point on the concentration scale where inhibition reaches its midpoint. High values mean a need for much substance, low ones inhibition by little substance. One may read the inhibition as the change of the read-out against control, counted positive when it falls.

Compound `CCn1c(-c2ccc(-n3cnn(C)c3=O)cc2)cc2ccnc(C(=O)Nc3ccc(F)c(C(N)=O)c3)c21` [Ex. 25] returned an IC50 in assay [1] of 280 nM. The inhibition at 0.1 µM in assay [2] (compound 0.1 μmol/L) was determined as 64%. The inhibition at 1 µM in assay [2] (compound 1 μmol/L) came to 97%.
In turn, `COCCn1c(-c2ccc(-n3c(C)nn(C)c3=O)cc2)cc2ccnc(C(=O)Nc3cccc(C(N)=O)c3F)c21` [Ex. 26] showed an IC50 in assay [1] of 390 nM. Besides, the inhibition at 0.1 µM in assay [2] (compound 0.1 μmol/L) was determined as 63%. Moreover, the inhibition at 1 µM in assay [2] (compound 1 μmol/L) was found to be 98%.
For `COCCn1c(-c2ccc(-n3c(C)nn(C)c3=O)cc2)cc2ccnc(C(=O)Nc3ccc(F)c(C(N)=O)c3)c21` [Ex. 27], the IC50 in assay [1] came out at 350 nM. In assay [2] (compound 0.1 μmol/L), the inhibition at 0.1 µM turned out to be 52%. Moreover, the inhibition at 1 µM in assay [2] (compound 1 μmol/L) was found to be 96%.
On the same counts, the results for `CCn1c(-c2ccc(-n3c(C)nn(C)c3=O)cc2)cc2c(C(F)(F)F)ccc(C(=O)Nc3ccc(F)c(C(N)=O)c3)c21` [Ex. 30] are 270 nM, 76% and 100%.
In the case of `CCn1c(-c2ccc(N3CCOCC3=O)cc2)cc2cc(C(F)(F)F)cc(C(=O)Nc3ccc(F)c(C(N)=O)c3)c21` [Ex. 31], the IC50 in assay [1] stood at 460 nM. Further, the inhibition at 0.1 µM in assay [2] (compound 0.1 μmol/L) worked out at 80%. In assay [2] (compound 1 μmol/L), the inhibition at 1 µM worked out at 97%.
On the same counts, the results for `CCn1c(-c2ccc(-n3c(C)nn(C)c3=O)cc2)cc2cc(C)cc(C(=O)Nc3ccc(F)c(C(N)=O)c3)c21` [Ex. 32] are 420 nM, 91% and 100%.
On the same counts, the results for `COCCn1c(-c2ccc(-n3c(C)nn(C)c3=O)cc2)cc2cc(C(F)(F)F)cc(C(=O)Nc3cccc(C(N)=O)c3F)c21` [Ex. 33] are 100 nM, 75% and 100%.
On the same counts, the results for `Cc1nn(C)c(=O)n1-c1ccc(-c2cc3cccc(C(=O)Nc4ccc(F)c(C(N)=O)c4)c3n2CC2CC2)cc1` [Ex. 34] are 610 nM, 39% and 96%.
In assay [1], `CCn1c(-c2ccc(-n3cnn(C)c3=O)cc2)cc2cc(C(F)(F)F)cc(C(=O)Nc3cccc(C(N)=O)c3)c21` [Ex. 35] registered an IC50 of 350 nM. The inhibition at 0.1 µM in assay [2] (compound 0.1 μmol/L) worked out at 100%.
Regarding `CCn1c(-c2ccc(-n3c(C)nn(C)c3=O)cc2)cc2cc(C(F)(F)F)cc(C(=O)Nc3cccc(C(N)=O)c3)c21` [Ex. 37], the half-maximal inhibitory concentration (IC50) in assay [1] was 250 nM. In addition, the inhibition at 0.1 µM in assay [2] (compound 0.1 μmol/L) is 96%. Moreover, the inhibition at 1 µM in assay [2] (compound 1 μmol/L) was found to be 100%.
In turn, `CCn1c(-c2ccc(-n3cnn(C)c3=O)cc2)cc2cc(C(F)(F)F)cc(C(=O)Nc3ccc(F)c(C(N)=O)c3)c21` [Ex. 38] displayed an IC50 in assay [1] of 330 nM. Also, the inhibition at 1 µM in assay [2] (compound 1 μmol/L) was determined as 100%. Moreover, in assay [2] (compound 0.1 μmol/L), the “Inhibition rate (%)” value is recorded as 99%.
Take `CCn1c(-c2ccc(-n3c(C)nn(C)c3=O)cc2)cc2cc(C(F)(F)F)cc(C(=O)Nc3ccc(F)c(C(N)=O)c3)c21` [Ex. 39]: the IC50 in assay [1] was 1200 nM. Besides, the inhibition at 0.1 µM in assay [2] (compound 0.1 μmol/L) amounted to 84%. For the same compound, the inhibition at 1 µM in assay [2] (compound 1 μmol/L) stood at 99%.
In turn, `CCn1c(-c2ccc(-n3c(C)nn(C)c3=O)cc2)cc2cc(C(F)(F)F)cc(C(=O)Nc3cccc(C(=O)NC)c3)c21` [Ex. 40] gave an IC50 in assay [1] of 290 nM. Besides, in assay [2] (compound 0.1 μmol/L), the inhibition at 0.1 µM came out at 92%. In addition, the inhibition at 1 µM in assay [2] (compound 1 μmol/L) is 100%.
On the same counts, the results for `COCCn1c(-c2ccc(-n3cnn(C)c3=O)cc2)cc2cc(C(F)(F)F)cc(C(=O)Nc3ccc(F)c(C(N)=O)c3)c21` [Ex. 41] are 280 nM, 92% and 100%.
Compound `COCCn1c(-c2ccc(-n3cnn(C)c3=O)cc2)cc2cc(C(F)(F)F)cc(C(=O)Nc3cccc(C(N)=O)c3F)c21` [Ex. 42] showed a 50% inhibitory concentration (IC50) in assay [1] of 260 nM. For the same compound, the inhibition at 0.1 µM in assay [2] (compound 0.1 μmol/L) is 90%. For the same compound, the inhibition at 1 µM in assay [2] (compound 1 μmol/L) came to 100%.
On the same counts, the results for `CNC(=O)c1cccc(NC(=O)c2cc(C(F)(F)F)cc3cc(-c4ccc(-n5cnn(C)c5=O)cc4)n(CCOC)c23)c1` [Ex. 43] are 250 nM, 93% and 100%.
On the same counts, the results for `CNC(=O)c1cccc(NC(=O)c2cc(C(F)(F)F)cc3cc(-c4ccc(-n5c(C)nn(C)c5=O)cc4)n(CCOC)c23)c1` [Ex. 44] are 170 nM, 93% and 100%.
`CCn1c(-c2ccc(-n3cnn(C)c3=O)cc2)cc2cc(C(F)(F)F)cc(C(=O)Nc3ccc(F)c(C(N)=O)c3)c21` [Ex. 45] registered an IC50 in assay [1] of 250 nM. For the same compound, the “Inhibition rate (%)” value in assay [2] (compound 0.1 μmol/L) was 63%; in assay [2] (compound 1 μmol/L), 100%.
Regarding `Cn1ncn(-c2ccc(-c3cc4cc(C(F)(F)F)cc(C(=O)Nc5ccc(F)c(C(N)=O)c5)c4[nH]3)cc2)c1=O` [Ex. 46], the IC50 in assay [1] is 450 nM. Moreover, the inhibition at 0.1 µM in assay [2] (compound 0.1 μmol/L) was 81%. In addition, the inhibition at 1 µM in assay [2] (compound 1 μmol/L) was determined as 100%.
On the same counts, the results for `CCn1c(-c2ccc(-n3ncn(C)c3=O)cc2)cc2cc(C(F)(F)F)cc(C(=O)Nc3cccc(C(N)=O)c3F)c21` [Ex. 47] are 1000 nM, 43% and 95%.
`CCn1c(-c2ccc(-n3ncn(C)c3=O)cc2)cc2cc(C(F)(F)F)cc(C(=O)Nc3cccc(C(N)=O)c3)c21` [Ex. 48] displayed an IC50 in assay [1] of 340 nM. In assay [2] (compound 0.1 μmol/L), the inhibition at 0.1 µM worked out at 84%. Further, the inhibition at 1 µM in assay [2] (compound 1 μmol/L) came to 100%.
On the same counts, the results for `CCn1c(-c2ccc(-n3c(C)nn(C)c3=O)cc2)cc2c(C(F)(F)F)ccc(C(=O)Nc3cccc(C(N)=O)c3F)c21` [Ex. 49] are 310 nM, 97% and 100%.
On the same counts, the results for `CCn1c(-c2ccc(-n3c(C)nn(C)c3=O)cc2)cc2cc(C#N)cc(C(=O)Nc3ccc(F)c(C(N)=O)c3)c21` [Ex. 50] are 560 nM, 42% and 99%.
In assay [1], `CNC(=O)c1cc(NC(=O)c2cc(C(F)(F)F)cc3cc(-c4ccc(-n5c(C)nn(C)c5=O)cc4)n(CCOC)c23)ccc1F` [Ex. 51] displayed an IC50 of 490 nM. Besides, the inhibition at 0.1 µM in assay [2] (compound 0.1 μmol/L) turned out to be 13%. For the same compound, in assay [2] (compound 1 μmol/L), the inhibition at 1 µM turned out to be 82%.
On the same counts, the results for `COCCn1c(-c2ccc(-n3c(C)nn(C)c3=O)cc2)cc2cc(C(F)(F)F)cc(C(=O)Nc3cccc(C#N)c3)c21` [Ex. 52] are 190 nM, 52% and 100%.
On the same counts, the results for `CCn1c(-c2ccc(-n3c(C)nn(C)c3=O)cc2)cc2cc(Cl)cc(C(=O)Nc3ccc(F)c(C(N)=O)c3)c21` [Ex. 56] are 270 nM, 94% and 100%.
On the same counts, the results for `CCn1c(-c2ccc(-n3c(C)nn(C)c3=O)cc2)cc2nccc(C(=O)Nc3ccc(F)c(C(N)=O)c3)c21` [Ex. 57] are 490 nM, 89% and 100%.
`CCn1c(-c2ccc(-n3c(C)nn(C)c3=O)cc2)cc2nccc(C(=O)Nc3cccc(C(N)=O)c3F)c21` [Ex. 59] gave an IC50 in assay [1] of 390 nM. The inhibition at 0.1 µM in assay [2] (compound 0.1 μmol/L) was 83%. In addition, in assay [2] (compound 1 μmol/L), the inhibition at 1 µM came to 99%.
On the same counts, the results for `CCn1c(-c2ccc(-n3c(C)nn(C)c3=O)cn2)cc2cc(C(F)(F)F)cc(C(=O)Nc3ccc(F)c(C(N)=O)c3)c21` [Ex. 61] are 470 nM, 93% and 100%.
On to `COCCn1c(-c2ccc(-n3c(C)nn(C)c3=O)cc2)cc2cc(C(F)(F)F)cc(C(=O)Nc3ccc4c(c3)C(=O)NCC4)c21` [Ex. 62], for which the IC50 in assay [1] came to 450 nM. In addition, the inhibition at 0.1 µM in assay [2] (compound 0.1 μmol/L) turned out to be 59%. Moreover, in assay [2] (compound 1 μmol/L), the inhibition at 1 µM stood at 99%.
On the same counts, the results for `CCn1c(-c2ccc(-n3cnn(C)c3=O)cn2)cc2cc(C(F)(F)F)cc(C(=O)Nc3cccc(C(N)=O)c3F)c21` [Ex. 65] are 440 nM, 50% and 98%.
On the same counts, the results for `CCn1c(-c2ccc(N3CCOCC3=O)cc2)cc2cc(C(F)(F)F)cc(C(=O)Nc3cccc(C(N)=O)c3F)c21` [Ex. 66] are 320 nM, 58% and 99%.
On the same counts, the results for `Cc1nn(C)c(=O)n1-c1ccc(-c2cc3cc(C(F)(F)F)cc(C(=O)Nc4ccc(F)c(C(N)=O)c4)c3n2CC2CC2)cc1` [Ex. 67] are 580 nM, 56% and 96%.
`CCn1c(-c2ccc(-n3c(C)nn(C)c3=O)cc2)cc2c(Cl)ccc(C(=O)Nc3ccc(F)c(C(N)=O)c3)c21` [Ex. 68] had an IC50 in assay [1] of 350 nM. Further, in assay [2] (compound 0.1 μmol/L), the inhibition at 0.1 µM stood at 59%. In addition, in assay [2] (compound 1 μmol/L), the inhibition at 1 µM stood at 100%.

The values above are taken from patent US20260092054A1, “FUSED RING COMPOUND AND PHARMACEUTICAL CONTAINING SAME” (KAKEN PHARMACEUTICAL CO., LTD., priority 2022, published 2026).
